Patent US10143681B2, “Factor XIa inhibitors” (MERCK SHARP & DOHME CORP., priority 2016, dated 2018)

How the values were obtained:
Human plasma kallikrein = Human plasma kallikrein (Homo sapiens (Human), UniProt P03952); test: Kallikrein Assay; format: biochemical; settings: purified Human plasma kallikrein 0.5 nM, substrate Acetyl-K-P-R-AFC; read-out: P. KLK IC50
Protocol: The effectiveness of a compound of the present invention as an inhibitor of Kallikrein can be determined using a relevant purified serine protease, and an appropriate synthetic substrate. The rate of hydrolysis of the chromogenic or fluorogenic substrate by the relevant serine protease was measured both in the absence and presence of compounds of the present invention. Assays were conducted at room temperature or at 37° C. […] A decrease in the rate of fluorescence change in the presence of inhibitor is indicative of enzyme inhibition. Such methods are known to one skilled in the art. The results of this assay are expressed as the half-maximal inhibitory concentrations (IC50), or the inhibitory constant, Ki.
Kallikrein determinations were made in 50 mM HEPES buffer at pH 7.4 containing 150 mM NaCl, 5 mM CaCl2, and 0.1% PEG 8000 (polyethylene glycol; Fisher Scientific). Determinations were made using purified Human plasma kallikrein at a final concentration of 0.5 nM (Enzyme Research Laboratories) and the synthetic substrate, Acetyl-K-P-R-AFC (Sigma # C6608) at a concentration of […].
Times required to achieve equilibration between enzyme and inhibitor were determined in control experiments. The reactions were performed under linear progress curve conditions and fluorescence increase measured at 405 Ex/510 Em nm. […] IC50 was determined by inflection point from a four parameter logistic curve fit. Ki was calculated using the Cheng Prusoff equation, Ki=IC50/(1+([S]/Km)).

[1] = system: Human plasma (intrinsic coagulation cascade); test: Activated Partial Thromboplastin Time (aPTT) Assay; settings: concentration that causes a 50% (1.5×) increase of clot time over vehicle
Outline: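 Inhibitors spiked into pooled citrated normal-donor human plasma (aPTT 28-40 seconds), run on automated coagulation analyzer: ellagic acid activation of Factor XII, then clot time after recalcification. Reported as concentration giving 50% (1.5×) prolongation over vehicle clot time.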

Sequence of Human plasma kallikrein (P03952 391-638): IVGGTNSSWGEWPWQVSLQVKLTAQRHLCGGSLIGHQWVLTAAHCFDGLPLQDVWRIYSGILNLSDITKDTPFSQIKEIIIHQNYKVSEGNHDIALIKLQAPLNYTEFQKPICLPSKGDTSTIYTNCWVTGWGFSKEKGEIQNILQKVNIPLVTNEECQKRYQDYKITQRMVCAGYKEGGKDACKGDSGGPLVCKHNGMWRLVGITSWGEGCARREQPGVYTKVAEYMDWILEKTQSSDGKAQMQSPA
Sequence of Human plasma kallikrein (P03952 20-390 partner): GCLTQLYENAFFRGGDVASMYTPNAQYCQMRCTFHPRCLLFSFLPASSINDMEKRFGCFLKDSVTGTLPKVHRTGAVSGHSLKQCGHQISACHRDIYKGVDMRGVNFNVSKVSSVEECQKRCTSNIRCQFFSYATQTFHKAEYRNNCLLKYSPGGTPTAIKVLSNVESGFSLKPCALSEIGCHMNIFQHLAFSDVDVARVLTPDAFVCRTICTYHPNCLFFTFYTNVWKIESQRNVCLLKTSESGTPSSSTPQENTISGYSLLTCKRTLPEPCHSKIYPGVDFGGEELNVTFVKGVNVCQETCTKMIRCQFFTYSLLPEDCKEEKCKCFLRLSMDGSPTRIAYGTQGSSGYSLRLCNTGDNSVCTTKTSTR

In the case of `COc1cc(C(CC2CC2)C(=O)Nc2ccc(C(=O)O)cc2)[n+]([O-])cc1-c1c(OC(F)F)ccc(Cl)c1F` (single isomer, unassigned) [Example 70, 2-(1-((4-carboxyphenyl)amino)-3-cyclopropyl-1-oxopropan-2-yl)-5-(3-chloro-6-(difluoromethoxy)-2-fluorophenyl)-4-methoxypyridine 1-oxide], the IC50 (Human plasma kallikrein) is reported as 3.3 nM and the “aPTT (1.5x)” value [1] is reported as 0.82 µM.

With `O=C(O)c1ccc(NC(=O)C(CC2CC2C(F)(F)F)c2ccc(-c3c(C(F)F)ccc(Cl)c3F)c[n+]2[O-])cc1` (single isomer, unassigned) [Example 88, 2-(1-((4-carboxyphenyl)amino)-1-oxo-3-(2-(trifluoromethyl)cyclo-propyl)propan-2-yl)-5-(3-chloro-6-(difluoromethyl)-2-fluorophenyl)pyridine 1-oxide] the IC50 (Human plasma kallikrein) was 3.6 nM and the “aPTT (1.5x)” value [1] was 1.43 µM.

For `O=C(O)c1ccc(NC(=O)C(CC2CCC2)c2ccc(-c3c(C(F)F)ccc(Cl)c3F)c[n+]2[O-])cc1F` (single isomer, unassigned) [Example 120, 2-(1-((4-carboxy-3-fluorophenyl)amino)-3-cyclobutyl-1-oxopropan-2-yl)-5-(3-chloro-6-(difluoromethyl)-2-fluorophenyl)pyridine 1-oxide], the IC50 (Human plasma kallikrein) was 2.1 nM and the “aPTT (1.5x)” value [1] was 0.75 µM.

In the case of `CC1CC1C[C@@H](C(=O)Nc1ccc(C(=O)O)cc1)c1ccc(-c2c(C(F)(F)F)ccc(Cl)c2F)c[n+]1[O-]` (single isomer, unassigned) [Example 65], the IC50 (Human plasma kallikrein) is reported as 51 nM and the “aPTT (1.5x)” value [1] is reported as 1.86 µM.

In the case of `O=C(O)c1ccc(NC(=O)C(CC2CC(F)(F)C2)c2ccc(-c3c(OC(F)F)ccc(Cl)c3F)c[n+]2[O-])cc1` (racemic) [Example 50, (S)- and (R)-2-(1-((4-carboxyphenyl)amino)-3-(3,3-difluorocyclobutyl)-1-oxopropan-2-yl)-5-(3-chloro-6-(difluoromethoxy)-2-fluorophenyl)pyridine 1-oxide], the IC50 (Human plasma kallikrein) is reported as 47 nM and the “aPTT (1.5x)” value [1] is reported as 1.33 µM.

In the case of `O=C(O)c1ccc(NC(=O)C(CC23CC(C2)C3)c2ccc(-c3c(C(F)F)ccc(Cl)c3F)c[n+]2[O-])cc1F` (single isomer, unassigned) [Example 124, 2-(3-(bicyclo[1.1.1]pentan-1-yl)-1-((4-carboxy-3-fluorophenyl)amino)-1-oxopropan-2-yl)-5-(3-chloro-6-(difluoromethyl)-2-fluorophenyl)pyridine 1-oxide], the IC50 (Human plasma kallikrein) is reported as 4.7 nM and the “aPTT (1.5x)” value [1] is reported as 1.76 µM.

For `COc1cc(C(CC2CC2)C(=O)Nc2ccc(C(=O)O)cc2)[n+]([O-])cc1-c1c(OC(F)F)ccc(Cl)c1F` (single isomer, unassigned) [Example 71, 2-(1-((4-carboxyphenyl)amino)-3-cyclopropyl-1-oxopropan-2-yl)-5-(3-chloro-6-(difluoromethoxy)-2-fluorophenyl)-4-methoxypyridine 1-oxide], the IC50 (Human plasma kallikrein) was 11 nM and the “aPTT (1.5x)” value [1] was 1.24 µM.

With `O=C(O)c1ccc(NC(=O)C(C[C@H]2CC[C@H](O)CC2)c2ccc(-c3c(OC(F)F)ccc(Cl)c3F)c[n+]2[O-])cc1` (single isomer, unassigned) [Example 35] the IC50 (Human plasma kallikrein) was 12 nM and the “aPTT (1.5x)” value [1] was 0.39 µM.

With `O=C(O)c1ccc(NC(=O)C(CC2CC2)c2ccc(-c3c(C(F)F)ccc(Cl)c3F)c[n+]2[O-])cc1F` (single isomer, unassigned) [Example 118, 2-(1-((4-carboxy-3-fluorophenyl)amino)-3-cyclopropyl-1-oxopropan-2-yl)-5-(3-chloro-6-(difluoromethyl)-2-fluorophenyl)pyridine 1-oxide] the IC50 (Human plasma kallikrein) was 14.6 nM and the “aPTT (1.5x)” value [1] was 0.66 µM.
